# Assay: gradient 5% acetonitrile 3 min, to 50% in 2 min, to 85% in 15 min, held 3 min, 100 µL/min
# Conditions: column: Zorbax Extend-C18 2.1 x 50 mm; eluents: water / acetonitrile, 0.1% formic acid
# Summary of the method: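 Retention time was recorded from adduct peaks, which were picked computationally and each inspected manually. Pure standards ran in mixtures of ~100 molecules on HPLC coupled to a quadrupole time-of-flight mass spectrometer, in positive and negative ionization mode, through a Zorbax Extend-C18 column (2.1 × 50 mm, 1.8 μm) at 100 μL/min. Eluents were water and acetonitrile, each with 0.1% formic acid.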
row,RP-LC retention time [s],SMILES
1,628,O=C(NC1CCN(c2nnc3ccccn23)CC1)c1ccc2c(c1)OCO2
2,922,O=C(CN1C(=O)CCCc2cc(S(=O)(=O)N3CCCCC3)ccc21)N1CCc2ccccc2C1
3,976,CCn1cc(C(=O)Nc2ccc(F)cc2)c(S(=O)(=O)N2CCSCC2)n1
4,863,CCCn1cc(S(=O)(=O)NCc2ccccc2)c2cccnc21
5,713,CC(C)NC(=O)c1nsc(C(=O)NC2CC2)c1N
6,824,CCc1nnc(-c2ccc(S(=O)(=O)N3CCCCC3)o2)o1
7,834,CC(C)(C)CC(=O)N1CC2CN(S(=O)(=O)c3cccc(F)c3)CC(C1)O2
8,1170,O=C(NCC1CCCCC1)C1CCN(C(=O)c2cc3ccsc3n2Cc2ccc(Cl)cc2)CC1
9,859,O=C(Nc1ccccc1)N1CCc2nc(-c3ccccc3)ncc2C1
10,972,COc1ccc(Cl)cc1NS(=O)(=O)c1cn(C(C)C)c2ncccc12
11,665,Cc1oc2c(c1C(=O)Nc1ccc3c(c1)OCO3)C1=NC(C)(C)CN1C=N2
12,644,CCCn1c(CCNC(=O)c2cccc(F)c2)nc2cccnc21
13,1230,CC(C)(C)c1ccc(S(=O)(=O)N2CCCCC2C(=O)N2CCN(c3ccc(F)cc3)CC2)cc1 (stereo unspecified)
14,632,CC(C)Cn1nc(CNC(=O)CSc2ccncc2)c2ccccc21
15,580,Cn1cc(CN2CCC(C(=O)NCCCN3CCOCC3)CC2)c2cc(Cl)ccc21
16,816,O=C(NC1CCCCCC1)C1CCCN(c2ncnc3c2nc2n3CCCCC2)C1 (stereo unspecified)
17,822,COc1cccc(C(=O)N2CCc3c(c(-c4nnc(-c5ccccc5Cl)o4)nn3C)C2)c1OC
18,675,CCNC(=O)C1CCN(c2nc3ncn(CC(=O)Nc4ccc(C)cc4C)c(=O)c3s2)CC1
19,614,Nc1ccc2nc3ccc(=O)cc-3n(-c3ccccc3)c2c1
20,759,Cc1cc2[nH]c(C(=O)Nc3ccc(Cl)cc3Cl)c(CN3CCOCC3)c2s1
21,766,COc1ccc(OC)c(S(=O)(=O)Nc2ccc(Oc3nc4ccccc4n4cnnc34)cc2)c1
22,765,Cc1ccc(S(=O)(=O)N2CCCC(CCC(=O)NC3CCS(=O)(=O)C3)C2)cc1 (stereo unspecified)

row,RP-LC retention time [s],SMILES
1,1010,Cc1ccc(NC(=O)C2CCN(S(C)(=O)=O)c3cc(Cl)ccc3O2)cc1 (stereo unspecified)
2,941,O=C(c1nccnc1-c1nc2ccccc2s1)N1CCc2ccccc21
3,642,CN(CCNc1nc(-c2ccc(Cl)cc2)nc2ccccc12)C1CCCCC1
4,1220,Cc1cccc(-c2noc(C3CCCN3S(=O)(=O)c3ccc(F)c(Cl)c3)n2)c1 (stereo unspecified)
5,935,Cc1sc(NC(=O)c2ccc(F)cc2)nc1-c1ccc2c(c1)NC(=O)C(C)O2 (stereo unspecified)
6,717,COc1ccccc1CNC(=O)C1CCN(c2cc(N3CCSCC3)ncn2)CC1
7,636,Cc1ccc(C(=O)N2CCCn3cc(-c4cccc(C#N)c4)nc32)cn1
8,593,O=C(C1CCN(c2cncnc2N2CCCCC2)CC1)N1CCOCC1
9,1020,CCCn1c(=O)sc2cc(S(=O)(=O)N3CCC(C(=O)N(C)C4CCCCC4)CC3)ccc21
10,626,Cc1cc(NC(=O)CSc2nc(-c3cccnc3)ccc2C#N)no1
11,620,O=C(Nc1ccccc1F)N1CC(F)(F)C[C@H]1CN1CCCC1
12,761,Cc1ccc(N2CCC(NC(=O)NC(C)(C)C)C2=O)cc1 (stereo unspecified)
13,694,O=C(Cn1cnc2nc(N3CCC(C(=O)NC4CC4)CC3)sc2c1=O)Nc1cc(F)cc(F)c1
14,643,CN(CCCNC(=O)c1ccc2c(c1)N(C)C(=O)C1CCCCN21)Cc1ccccc1 (stereo unspecified)
15,938,COCCn1cc2c3c(cccc31)CN(C(=O)Nc1cc(F)ccc1F)CC2
16,862,CCCNC(=O)Cn1c(=O)c2cnc(-c3ccccc3)nc2n(CC)c1=O
17,737,Cc1ccc(-c2csc(NC(=O)CN3CCN(Cc4ccc5c(c4)OCO5)CC3)n2)cc1
18,814,Cc1ccc(Cl)cc1N1C(=O)CN(S(C)(=O)=O)CC1(C)C(=O)NCc1ccc(F)cc1 (stereo unspecified)
19,1120,CCCCn1cc(S(=O)(=O)N2CCN(c3ccc(F)cc3)CC2)c2cccnc21
20,1070,Cc1ccc(-c2cc(-c3cc(-c4ccc(C)cc4C)n[nH]3)[nH]n2)c(C)c1
21,1100,COc1ccc(C)cc1NC(=O)Nc1ccc2c(c1)CCN2S(=O)(=O)c1ccc(C)cc1
22,590,CCOC(=O)C1CCCN(CC(O)COc2ccccc2Br)C1 (stereo unspecified)

row,RP-LC retention time [s],SMILES
1,884,CCC(=O)N(C1CCOCC1)C1CCN(S(=O)(=O)c2ccc(F)c(Cl)c2)CC1
2,604,CCc1ccc(C2=C(C)C(N3CCC(C(=O)NCCCN4CCCC4)CC3)=NS2(=O)=O)cc1
3,1020,Cc1cccc(-c2nnc(-c3ccc(Cl)c(S(=O)(=O)N4CCOCC4)c3)o2)c1
4,592,CN1CCN(C(=O)c2ccc(CN3CCN(Cc4ccc(F)cc4)C(=O)C3=O)cc2)CC1
5,772,CCOC(=O)CNC(=O)NCc1cccn1Cc1ccc(F)cc1
6,1040,C[C@H]1CN(C(=O)c2cc(F)cc(F)c2)C[C@@H]1c1nc(-c2ccccc2)no1
7,855,Cc1ccc(NC(=O)NC2CCN(c3ccccc3)C2=O)cc1F (stereo unspecified)
8,879,CCS(=O)(=O)Nc1ccc(C2(C(=O)NCC(C)C)CCCCC2)cc1
9,1250,O=S(=O)(c1cc(-c2nnc(C3CCC3)o2)co1)N1CCN(c2ccc(F)cc2)CC1
10,642,CN1CCN(S(=O)(=O)c2ccc3nn(Cc4c(F)cccc4Cl)c(=O)n3c2)CC1
11,773,CC(C)NC(=O)CC1CCN(C(=O)c2cc3cc(Cl)ccc3[nH]2)CC1
12,648,Cc1ccn2cc(-c3ccc(NC(=O)c4ccc(F)cc4)cc3)nc2n1
13,853,O=C(NC1CC1)c1csc(N2CCCCC2)n1
14,830,Cc1ccc(NC(=O)Cn2ccc3sccc3c2=O)cc1Cl
15,620,Cc1oc2ncnc(N3CCCC(C(=O)N4CCC(C(N)=O)CC4)C3)c2c1C (stereo unspecified)
16,933,Cc1ccc2[nH]cc(CCNC(=O)C3CCN(S(=O)(=O)c4ccc5c(ccn5C)c4)CC3)c2c1
17,775,CCCNC(=O)N1CCCN(C2=NS(=O)(=O)C(c3cccc(Cl)c3)=C2C)CC1
18,956,CCCSc1nnc(NC(=O)c2c(-c3ccccc3Cl)noc2C)s1
19,1310,Cc1nc2cc(-c3noc(C(C)Oc4ccccc4)n3)ccc2n(C2CCCC2)c1=O (stereo unspecified)
20,855,COCCC1CCN(C(=O)COc2cccc(Cl)c2)CC1
21,754,COc1ccccc1NC(=O)N1CCC2(CC1)NC(=O)c1cccc(Cl)c1N2
22,936,CCOc1ccccc1-c1nc(-c2cn(-c3cccc(F)c3)nn2)no1

# Source: the METLIN SMRT retention time set (Domingo-Almenara et al. 2019)
